Where a name gives a salt, the structure may show the parent alone.

The source of these data is US10829501B2 (BRISTOL-MYERS SQUIBB COMPANY, priority 2016, dated 2020).

In one experiment the target is ROCK2 (Homo sapiens, UniProt O75116). Briefly: ROCK2 kinase inhibition assay (LABCHIP 3000 Reader, FITC peptide substrate).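 Further: rho kinase reaction read by separating phosphorylated from unphosphorylated peptide on chip, with inhibition of kinase activity computed per concentration across a dose-response series.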
Sequence of ROCK2 (O75116 whole entry, species assumed): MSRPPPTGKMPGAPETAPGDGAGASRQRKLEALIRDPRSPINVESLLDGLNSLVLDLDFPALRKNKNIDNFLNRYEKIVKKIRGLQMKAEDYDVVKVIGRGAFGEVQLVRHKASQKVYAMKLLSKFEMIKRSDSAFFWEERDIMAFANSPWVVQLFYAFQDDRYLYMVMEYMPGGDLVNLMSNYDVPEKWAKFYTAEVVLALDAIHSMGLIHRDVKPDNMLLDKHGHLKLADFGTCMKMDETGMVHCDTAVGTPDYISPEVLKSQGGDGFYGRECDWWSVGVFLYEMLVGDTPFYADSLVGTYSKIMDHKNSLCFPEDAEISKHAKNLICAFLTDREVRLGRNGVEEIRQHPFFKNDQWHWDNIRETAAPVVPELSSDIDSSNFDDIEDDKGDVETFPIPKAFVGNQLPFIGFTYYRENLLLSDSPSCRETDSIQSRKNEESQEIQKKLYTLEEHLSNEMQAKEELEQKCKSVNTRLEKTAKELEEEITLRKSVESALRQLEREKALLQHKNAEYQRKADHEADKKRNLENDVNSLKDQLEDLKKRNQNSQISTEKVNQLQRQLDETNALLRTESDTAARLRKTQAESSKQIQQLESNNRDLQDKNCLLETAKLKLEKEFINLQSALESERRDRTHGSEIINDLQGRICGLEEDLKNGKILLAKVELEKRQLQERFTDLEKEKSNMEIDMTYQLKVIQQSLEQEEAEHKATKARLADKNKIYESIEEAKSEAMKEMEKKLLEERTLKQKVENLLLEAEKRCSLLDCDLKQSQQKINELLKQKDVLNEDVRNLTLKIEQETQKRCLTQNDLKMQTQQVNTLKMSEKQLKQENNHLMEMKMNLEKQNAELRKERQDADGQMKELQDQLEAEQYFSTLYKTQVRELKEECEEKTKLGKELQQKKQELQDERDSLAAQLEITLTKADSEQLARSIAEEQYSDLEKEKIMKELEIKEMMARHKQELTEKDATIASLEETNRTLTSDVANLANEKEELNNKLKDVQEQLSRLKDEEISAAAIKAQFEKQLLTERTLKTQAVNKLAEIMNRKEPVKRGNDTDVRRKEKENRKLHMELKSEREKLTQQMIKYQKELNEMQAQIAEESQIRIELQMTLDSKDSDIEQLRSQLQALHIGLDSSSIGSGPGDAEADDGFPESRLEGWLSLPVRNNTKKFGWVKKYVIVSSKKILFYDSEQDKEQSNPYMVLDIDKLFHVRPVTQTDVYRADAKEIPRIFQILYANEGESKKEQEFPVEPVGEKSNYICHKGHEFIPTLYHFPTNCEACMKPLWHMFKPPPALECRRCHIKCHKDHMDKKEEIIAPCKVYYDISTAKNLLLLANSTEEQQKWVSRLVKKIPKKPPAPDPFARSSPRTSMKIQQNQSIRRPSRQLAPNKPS
Conditions: not given
For `NC(=O)c1cccnc1O[C@H]1CC2(C[C@H](NC(=O)c3cnc4cc(N5CC[C@H](F)C5)ccn34)C2)C1` (stereo partly drawn) [Example 322, N-((aR)-6-((3-carbamoylpyridin-2-yl)oxy)spiro[3.3]heptan-2-yl)-7-((S)-3-fluoropyrrolidin-1-yl)imidazo[1,2-a]pyridine-3-carboxamide], the IC50 was less than 5 nM. The same measure, in the same setting: the figure for `CC(C)(O)COc1ccc2c(C(=O)NC3CC4(C3)CC(Oc3cc(-c5cnn(CC(C)(C)O)c5)ccc3C(N)=O)C4)cnn2c1` (stereo not shown) [Example 279, N-(6-(2-carbamoyl-5-(1-(2-hydroxy-2-methylpropyl)-1H-pyrazol-4-yl)phenoxy)spiro[3.3]heptan-2-yl)-6-(2-hydroxy-2-methylpropoxy)pyrazolo[1,5-a]pyridine-3-carboxamide] is 5 to 50 nM; for `NC(=O)c1cccnc1O[C@H]1CC2(C[C@H](NC(=O)c3cnn4cc(OC(F)F)ccc34)C2)C1` (stereo partly drawn) [Example 312, N-((aR)-6-((3-carbamoylpyridin-2-yl)oxy)spiro[3.3]heptan-2-yl)-6-(difluoromethoxy)pyrazolo[1,5-a]pyridine-3-carboxamide] it is 5 to 50 nM. With `NC(=O)c1cccnc1O[C@H]1CC2(C[C@H](NC(=O)c3cnn4cc(N5CC[C@@H](F)C5)ccc34)C2)C1` (stereo partly drawn) [Example 318, N-((aR)-6-((3-carbamoylpyridin-2-yl)oxy)spiro[3.3]heptan-2-yl)-6-((R)-3-fluoropyrrolidin-1-yl)pyrazolo[1,5-a]pyridine-3-carboxamide], the concentration for half-maximal inhibition (IC50) was less than 5 nM. Same read-out and setting: the figure for `Cn1cc(-c2cc(C#N)cc(C(=O)N[C@H]3CC4(C3)C[C@H](Oc3ncccc3C(N)=O)C4)c2)c(C(F)(F)F)n1` (stereo partly drawn) [Example 184, 2-(((aR)-6-(3-cyano-5-(1-methyl-3-(trifluoromethyl)-1H-pyrazol-4-yl)benzamido)spiro[3.3]heptan-2-yl)oxy)nicotinamide, trifluoroacetate] is 5 to 50 nM; for `CC(C)n1cc(-c2ccc3c(C(=O)N[C@H]4CC5(C4)C[C@H](Oc4ncccc4C(N)=O)C5)nnn3c2)c(C(F)(F)F)n1` (stereo partly drawn) [Example 366, N-((aR)-6-((3-carbamoylpyridin-2-yl)oxy)spiro[3.3]heptan-2-yl)-6-(1-isopropyl-3-(trifluoromethyl)-1H-pyrazol-4-yl)-[1,2,3]triazolo[1,5-a]pyridine-3-carboxamide] it is 5 to 50 nM; for `[H][C@]1(Oc2ncccc2C(N)=O)C[C@@]2(C[C@H](NC(=O)c3cnc4cc(N5CC(N)C5)ccn34)C2)C1` (stereo partly drawn) [Example 359, 7-(3-aminoazetidin-1-yl)-N-((aR)-6-((3-carbamoylpyridin-2-yl)oxy)spiro[3.3]heptan-2-yl)imidazo[1,2-a]pyridine-3-carboxamide] it is 50 to 250 nM. On the same count and under the same terms, next, `NC(=O)c1cccnc1O[C@H]1CC2(C[C@H](NC(=O)c3cnc4cc(OC5CC(F)(F)C5)ccn34)C2)C1` (stereo partly drawn) [Example 360, N-((aR)-6-((3-carbamoylpyridin-2-yl)oxy)spiro[3.3]heptan-2-yl)-7-(3,3-difluorocyclobutoxy)imidazo[1,2-a]pyridine-3-carboxamide]: 5 to 50 nM; `[H][C@]1(Oc2ncccc2C(N)=O)C[C@@]2(C[C@H](NC(=O)c3nn(C(F)F)c4cc(N5CCOCC5)ccc34)C2)C1` (stereo partly drawn) [Example 372, N-((aR)-6-((3-carbamoylpyridin-2-yl)oxy)spiro[3.3]heptan-2-yl)-1-(difluoromethyl)-6-morpholino-1H-indazole-3-carboxamide]: less than 5 nM. Compound `CC(C)(O)COc1ccc2c(C(=O)NC3CC4(C3)CC(Oc3cc(-c5cc(C#N)cc([N+](=O)[O-])c5)ccc3C(N)=O)C4)cnn2c1` (stereo not shown) [Example 254, N-(6-((4-carbamoyl-3′-cyano-5′-nitro-[1,1′-biphenyl]-3-yl)oxy)spiro[3.3]heptan-2-yl)-6-(2-hydroxy-2-methylpropoxy)pyrazolo[1,5-a]pyridine-3-carboxamide] had an IC50 of 5 to 50 nM. For `NC(=O)c1cccnc1O[C@H]1CC2(C[C@H](NC(=O)c3cc4ccccc4cn3)C2)C1` (stereo partly drawn) [Example 159, N-((aR)-6-((3-carbamoylpyridin-2-yl)oxy)spiro[3.3]heptan-2-yl)isoquinoline-3-carboxamide], the IC50 was in the range of 50 to 250 nM.

In turn, `CC(C)(O)COc1ccc2c(C(=O)NC3CC4(C3)CC(Oc3cc(CCCN5CCOCC5)ccc3C(N)=O)C4)cnn2c1` (stereo not shown) [Example 264, N-(6-(2-carbamoyl-5-(3-morpholinopropyl)phenoxy)spiro[3.3]heptan-2-yl)-6-(2-hydroxy-2-methylpropoxy)pyrazolo[1,5-a]pyridine-3-carboxamide] registered an IC50 of 50 to 250 nM. On to `Cc1ccc(OC2CC3(CC(NC(=O)c4cnn5cc(OCC(C)(C)O)ccc45)C3)C2)c(C(N)=O)c1` (stereo not shown) [Example 218, N-(6-(2-carbamoyl-4-methylphenoxy)spiro[3.3]heptan-2-yl)-6-(2-hydroxy-2-methylpropoxy)pyrazolo[1,5-a]pyridine-3-carboxamide], for which the IC50 was in the range of 250 to 2500 nM.

In the case of `Cc1noc(C)c1-c1cc(C#N)cc(C(=O)N[C@H]2CC3(C2)C[C@H](Oc2ncccc2C(N)=O)C3)c1` (stereo partly drawn) [Example 190, 2-((aR)-6-(3-cyano-5-(3,5-dimethylisoxazol-4-yl)benzamido)spiro[3.3]heptan-2-yl)oxy)nicotinamide, trifluoroacetate], the IC50 fell in the range of 5 to 50 nM.

In the case of `[H][C@]1(Oc2cc(-c3cnn(C)c3)ccc2C(N)=O)C[C@@]2(C[C@H](NC(=O)c3cnn4cc(OCC(C)(C)O)ccc34)C2)C1` (single isomer, unassigned) [Example 276], the IC50 lay within 5 to 50 nM. The same measure, in the same setting: the figure for `[H][C@]1(Oc2ccccc2C(N)=O)C[C@@]2(C[C@H](NC(=O)c3cnn4c(C5CC5)c(OCC(C)(C)O)ccc34)C2)C1` (stereo partly drawn) [Example 15, N-((aR)-6-(2-carbamoylphenoxy)spiro[3.3]heptan-2-yl)-7-cyclopropyl-6-(2-hydroxy-2-methylpropoxy)pyrazolo[1,5-a]pyridine-3-carboxamide] is less than 5 nM; for `NC(=O)c1cccnc1O[C@H]1CC2(C[C@H](NC(=O)c3nn(C(F)F)c4cc(Br)ccc34)C2)C1` (stereo partly drawn) [Example 172, 6-bromo-N-((aR)-6-((3-carbamoylpyridin-2-yl)oxy)spiro[3.3]heptan-2-yl)-1-(difluoromethyl)-1H-indazole-3-carboxamide, trifluoroacetate] it is 5 to 50 nM. Still for that read-out and setting: the figure for `Cn1cccc(-c2cc(C#N)cc(C(=O)N[C@H]3CC4(C3)C[C@H](Oc3ncccc3C(N)=O)C4)c2)c1=O` (stereo partly drawn) [Example 194, 2-(((aR)-6-(3-cyano-5-(1-methyl-2-oxo-1,2-dihydropyridin-3-yl)benzamido)spiro[3.3]heptan-2-yl)oxy)nicotinamide, trifluoroacetate] is 5 to 50 nM. `CC(C)(O)COc1ccc2c(C(=O)NC3CC4(C3)CC(Oc3cc(-c5cccc(C(=O)N6CCOCC6)c5)ccc3C(N)=O)C4)cnn2c1` (stereo not shown) [Example 294, N-(6-((4-carbamoyl-3′-(morpholine-4-carbonyl)-[1,1′-biphenyl]-3-yl)oxy)spiro[3.3]heptan-2-yl)-6-(2-hydroxy-2-methylpropoxy)pyrazolo[1,5-a]pyridine-3-carboxamide] gave a 50% inhibitory concentration (IC50) of 5 to 50 nM. On the same count and under the same terms, next, `[H][C@]1(Oc2ncccc2C(N)=O)C[C@@]2(C[C@H](NC(=O)c3nn(C(C)(C)C#N)c4cc(-c5cnn(C)c5)ccc34)C2)C1` (stereo partly drawn) [Example 406, N-((aR)-6-((3-carbamoylpyridin-2-yl)oxy)spiro[3.3]heptan-2-yl)-1-(2-cyanopropan-2-yl)-6-(1-methyl-1H-pyrazol-4-yl)-1H-indazole-3-carboxamide, TFA]: less than 5 nM; `NC(=O)c1cccnc1O[C@H]1CC2(C[C@H](NC(=O)c3cnc4cc(N5CC[C@@H](F)C5)ccn34)C2)C1` (stereo partly drawn) [Example 329, N-((aR)-6-((3-carbamoylpyridin-2-yl)oxy)spiro[3.3]heptan-2-yl)-7-((R)-3-fluoropyrrolidin-1-yl)imidazo[1,2-a]pyridine-3-carboxamide]: less than 5 nM.

Staying with this experiment, now noted: read-out: ROCK2 Activity (ROCK2 IC50); 5 μM ATP, 1.5 μM peptide substrate, pH 7.5.
As for `COc1ccc2c(c1)CCc1c(C(=O)NC3CC4(C3)CC(Oc3ncccc3C(N)=O)C4)nn(C)c1-2` [Example 380, N-((aR)-6-((3-carbamoylpyridin-2-yl)oxy)spiro[3.3]heptan-2-yl)-7-methoxy-1-methyl-4,5-dihydro-1H-benzo[g]indazole-3-carboxamide], the IC50 lay within 5 to 50 nM. Take “2-(((aR)-6-(3-(2- methylthiazol-4- yl)benzamido)spiro [3.3]heptan-2- yl)oxy)nicotinamide, trifluoroacetate [Example 133]”: the concentration for half-maximal inhibition (IC50) lay within 5 to 50 nM. As for “N-((aR)-6-((3- carbamoylpyridin-2- yl)oxxy)spiro[3.3] heptan-2-yl)- 5-fluoro-1- (2-hydroxy-2- methylpropyl)- 3a,7a-dihydro- 1H-indazole-3- carboxamide, trifluoroacetate [Example 67]”, the concentration for half-maximal inhibition (IC50) was 5 to 50 nM. Still for that read-out and setting: next, `CC(C)(C)c1cccc(C(=O)NC2CC3(C2)CC(Oc2ncccc2C(N)=O)C3)c1` [Example 423, 2-(((aR)-6-(3-(tert-butyl)benzamido)spiro[3.3]heptan-2-yl)oxy)nicotinamide]: 5 to 50 nM. `Cc1nn(C)cc1-c1ccc2c(C(=O)NC3CC4(C3)CC(Oc3ncccc3C(N)=O)C4)nc(C)n2c1` [Example 459, N-((aR)-6-((3-carbamoylpyridin-2-yl)oxy)spiro[3.3]heptan-2-yl)-6-(1,3-dimethyl-1H-pyrazol-4-yl)-3-methylimidazo[1,5-a]pyridine-1-carboxamide]: the IC50 fell in the range of 5 to 50 nM.

Consider `Cc1nn(C)cc1-c1ccc2c(C(=O)NC3CC4(C3)CC(Oc3ncccc3C(N)=O)C4)nc(C(F)F)n2c1` [Example 445, N-((aR)-6-((3-carbamoylpyridin-2-yl)oxy)spiro[3.3]heptan-2-yl)-3-(difluoromethyl)-6-(1,3-dimethyl-1H-pyrazol-4-yl)imidazo[1,5-a]pyridine-1-carboxamide], for which the IC50 was less than 5 nM. Still for that read-out and setting: the figure for `NC(=O)c1cccnc1OC1CC2(CC(NC(=O)c3cc(N4CC5CCC(C4)O5)cc(C(F)(F)F)c3)C2)C1` [Example 456, 2-(((aR)-6-(3-(8-oxa-3-azabicyclo[3.2.1]octan-3-yl)-5-(trifluoromethyl)benzamido)spiro[3.3]heptan-2-yl)oxy)nicotinamide] is less than 5 nM.

As usually defined, the IC50 is the midpoint of a concentration-inhibition curve.
